According to patent US11459313B2, “Aziridinyl and amino dimeric naphthoquinone compounds and use for acute myeloid leukemia” (University of Maryland, Baltimore, priority 2016, dated 2022):
“Also recorded” adds a separate entry of the source. Read-outs that look alike come from different tables or passages of the source.

Columns and labels:
MOLM-14 cells [1] = test: WST-1 cell proliferation assay, MOLM-14; format: cell-based, human; details: Homo sapiens
Experimental: (§1) Cell lines were seeded into 96-well plates the afternoon prior to treatment. Approximately 18 hours later, bis and mono-aziridine dimeric naphthoquinone compounds were semi-serially diluted in dimethyl sulfoxide (DMSO) and then growth medium, and added to cells. Plates were incubated for 72 hours prior to addition of WST-1 (Promega®). Plates were read after 4 additional hours of incubation at 37° C. using a Bio-Tek Synergy® HT plate reader (Bio-Tek®). Data were analyzed and graphed using GraphPad Prism® Software (Graph Pad®).
(§2) Primary AML cells from patients and cell lines were seeded into 96-well plates the afternoon prior to treatment. Eighteen hours later, amino-dimeric naphthoquinone Compounds 106, 101, and 114 were semi-serially diluted in dimethyl sulfoxide (DMSO) and then growth medium, and added to the cells. In order to quantitate proliferation of metabolically active cells, plates were incubated for 72 hours for cell lines and 48 hours for primary AML cells prior to addition of water-soluble tetrazolium (WST-1) (Clontech®). Plates were read after four additional hours of incubation at 37° C. using a Bio-Tek Synergy® HT plate reader (Bio-Tele®). Data were analyzed and graphed using GraphPad Prism® Software (GraphPad®). IC50 was defined as the concentration that decreases viable cell numbers by 50%. IC50 values were calculated as mean±standard deviation from at least two independent experiments. If availability of primary blasts was limited, the IC50 was obtained from a single experiment.
To investigate antiproliferative activity of amino-dimeric naphthoquinones against AML cells, an MTT-like cell proliferation assay was performed in the AML cell lines using WST-1 (water soluble tetrazolium salts; Promega®). MOLM-14 and AML-D cells, as well as normal hematopoietic bone marrow cells from a healthy donor, were exposed to a range of concentrations of Compound 101. Human leukemia cells were cultured in the presence of the compound for 72 hours (48 hours for primary cells) and WST-1 reagent was then added. The cells then were monitored for cell growth or the number of cells proliferating and the IC50 calculated. The IC50 is the concentration at which 50% of the cells are not proliferating compared to control cells treated with vehicle. See FIG. 2A, FIG. 2B, and FIG. 2C for representative graphs of these IC50 determinations.

MV4-11 cells = test: WST-1 cell proliferation assay, MV4-11; format: cell-based, human; details: Homo sapiens, MV4-11, Example 5 text; read-out: IC50 MV4-11
Experimental: as §1, §2

[2] = system: normal hematopoietic bone marrow cells; test: WST-1 cell proliferation assay, normal bone marrow cells; format: cell-based; details: Homo sapiens
Experimental: Bone marrow aspirate or whole blood samples were received in sodium ethylenediaminetetraacetate (EDTA) tubes, and diluted 1:1 with phosphate-buffered saline (PBS). Cells were isolated from diluted samples by density separation in lymphocyte separation medium (Corning Cellgro®) with centrifugation at 400×g for 30 minutes with no brake. Cells from healthy donor whole blood were isolated in similar manner. N01mal bone marrow mononuclear cells (NBM) were purchased from Lonza®. Viable cell numbers were calculated using trypan blue exclusion. All primary AML cells and cell lines were grown in 37° C. with 5% CO2 atmosphere in Roswell Park Memorial institute (RPMI) 1640 medium (Life Technologies®) supplemented with heat-inactivated 10% (v/v) fetal bovine serum. […]
Primary AML cells from patients and cell lines were seeded into 96-well plates the afternoon prior to treatment. […] In order to quantitate proliferation of metabolically active cells, plates were incubated for 72 hours for cell lines and 48 hours for primary AML cells prior to addition of water-soluble tetrazolium (WST-1) (Clontech®). Plates were read after four additional hours of incubation at 37° C. using a Bio-Tek Synergy® HT plate reader (Bio-Tele®). Data were analyzed and graphed using GraphPad Prism® Software (GraphPad®). […] IC50 values were calculated as mean±standard deviation from at least two independent experiments. […]

MOLM-14 cells [3] = test: Clonogenic assay, MOLM-14; format: cell-based, human; details: 24 hours exposure, then methylcellulose; p<0.05 at 1, 10 and 100 μM
Experimental: MOLM-14 and THP-1 were treated with either DMSO control or mono-aziridine dimeric naphthoquinone or bis-aziridinyl dimeric naphthoquinone compounds at concentrations of 0.1, 1, 10 and 100 μM (micromolar) for 24 hours. The cells then were washed with growth medium and resuspended in growth medium and methylcellulose with or without DMSO or the treatment compounds. After 7 or 13 days (MOLM-14 or THP-1, respectively), treatment was terminated by addition of 1.0 mg/mL, iodonitrotetrazolium chloride (INT; Sigma Aldrich®) and read 24 hours later with an automated colony counter (Symbiosis®). Data were analyzed and graphed using GraphPad Prism® software.
Next, the effect of bis-aziridinyl-dimeric naphthoquinone Compound 101 on AML cell survival and viability. […] For colony formation assays, cell lines were treated with the indicated doses of aziridinyl dimeric naphthoquinone Compound 101 for 24 hours, and subsequently washed and plated in methylcellulose to observe clonogenic potential after 7-10 days. See above for additional comments on the methods.
Clonogenic inhibition was […] when bis-aziridinyl dimeric naphthoquinone was removed from cells after 24 hours of treatment. The bis-aziridinyl dimeric naphthoquinone was able to reduce clonogenicity with just a 24-hour exposure prior to plating.

THP-1 cells = test: Cell survival assay (trypan blue exclusion), THP-1; format: cell-based, human; details: 72 hours; at 1, 10 and 100 μM
Experimental: MOLM-.14 and THP-1 cells were seeded in 96-well plates and treated with DMSO, mono- and bis-aziridinyl dimeric naphthoquinone compounds, or dimethylamine dimeric naphthoquinone Compound 114 as previously described. Cells were incubated for 72 hours, and then counted using trypan blue exclusion on the Countess® automated cell counter (Life Technologies®). Cell counts were performed in duplicates, and the averages were graphed using GraphPad Prism® software (GraphPad®).
Cell survival was determined using trypan blue exclusion, in which cells are plated and the following day treated similarly to the proliferation assay. The bis-aziridinyl dimeric naphthoquinone Compound 101 was effective in decreasing cell number at increasing concentrations of compound in MOLM-14 and THP1 cells.

O=C1C(C2=C(N3CC3)C(=O)c3ccccc3C2=O)=C(N2CC2)C(=O)c2ccccc21 [Compound 101, 3,3′-di(aziridin-1-yl)-[2,2′-binaphthalene]-1,1 4,4′-tetrone]
IC50 (MOLM-14 cells [1]; MOLM-14, 72 h, 72 hours, WST-1, read-out: IC50 against MOLM-14 cells): 0.15 to 0.2 µM
IC50 (MOLM-14 cells [1]; MOLM-14, Example 5 text, read-out: IC50 MOLM-14): 0.18 ± 0.06 µM
IC50 (MOLM-14 cells [1]; MOLM-14, Table 5, read-out: IC50 MOLM-14 (n)): 0.25 ± 0.2 µM
IC50 (MV4-11 cells): 1.05 ± 0.05 µM
IC50 [2]: 3.37 ± 1.27 µM
clonogenic activity (colony formation), MOLM-14 (MOLM-14 cells [3]): marked reduction in clonogenic activity; also recorded: inhibits clonogenicity
viable cells, THP-1 (THP-1 cells): statistically significant (p<0.05) reduction in viable cells
